Measurements taken from ChEMBL document CHEMBL1144083, “Phenylvaleric acid and flavonoid glycosides from Polygonum salicifolium” (J Nat Prod, 1999).
The source made the active and inactive calls. The calls are words filed in the database; no cut-off is given here.

How the values were obtained:
Assay type in all cases: functional
[1] = test system: Radical scavenging activity; experiment: Antioxidant activity assessed as DPPH free radical scavenging activity at 2 ug by TLC autographic assay
[2] = test system: Radical scavenging activity; experiment: Antioxidant activity assessed as DPPH free radical scavenging activity at 4 ug by TLC autographic assay
[3] = test system: Radical scavenging activity; experiment: Antioxidant activity assessed as DPPH free radical scavenging activity at 6 ug by TLC autographic assay
[4] = test system: Radical scavenging activity; experiment: Antioxidant activity assessed as DPPH free radical scavenging activity at 8 ug by TLC autographic assay
[5] = test system: Radical scavenging activity; experiment: Antioxidant activity assessed as DPPH free radical scavenging activity by TLC autographic assay

Row | Compound | Activity [1] | Activity [2] | Activity [3] | Activity [4] | Activity [5]
1 | O=C(O[C@H]1[C@H](Oc2c(-c3ccc(O)c(O)c3)oc3cc(O)cc(O)c3c2=O)O[C@H](CO)[C@@H](O)[C@@H]1O)c1cc(O)c(O)c(O)c1 | Active | Active | Active | Active | 
2 | CCCCOC(=O)C[C@@H](CCc1ccccc1)O[C@H]1O[C@@H](CO)[C@H](O)[C@@H](O)[C@@H]1O |  |  |  |  | inactive
3 | O=C(O)[C@H]1O[C@@H](Oc2c(-c3ccc(O)c(O)c3)oc3cc(O)cc(O)c3c2=O)[C@H](O)[C@@H](O)[C@@H]1O | Active | Active | Active | Active | 
4 | O=c1c(O[C@@H]2O[C@H](CO)[C@@H](O)[C@H](O)[C@H]2O)c(-c2ccc(O)c(O)c2)oc2cc(O)cc(O)c12 | Active | Active | Active | Active | 
5 | COc1cc(O[C@@H]2O[C@H](CO[C@@H]3O[C@H](CO)[C@@H](O)[C@H](O)[C@H]3O)[C@@H](O)[C@H](O)[C@H]2O)c(OC)c(O)c1C(=O)CCc1ccccc1 |  |  |  |  | inactive
6 | O=C(O)C[C@@H](CCc1ccccc1)O[C@H]1O[C@@H](CO)[C@H](O)[C@@H](O)[C@@H]1O |  |  |  |  | inactive
7 | O=c1c(O[C@@H]2O[C@H](CO)[C@H](O)[C@H](O)[C@H]2O)c(-c2ccc(O)c(O)c2)oc2cc(O)cc(O)c12 | Active | Active | Active | Active | 
